{"source": "patent US8252895B2", "about": "“Cyclic peptide compounds” (Astellas Pharma Inc., priority 2005, dated 2012)", "note": "Square brackets hold non-standard residues; d marks the D form. Peptide text beside a SMILES is read from it. * marks the point of attachment. ξ: configuration not given here. MeBmt = C/C=C/C[C@@H](C)[C@@H](O)[C@H](NC)C(=O)O; NMeIle(3ξ) = CCC(C)[C@H](NC)C(=O)O; NMeThr(3ξ) = CN[C@H](C(=O)O)C(C)O; NMePhg = CN[C@H](C(=O)O)c1ccccc1; NMeT = CN[C@H](C(=O)O)[C@@H](C)O; NMeL = CN[C@@H](CC(C)C)C(=O)O; dNMeAbu = CC[C@@H](NC)C(=O)O; NMeV = CN[C@H](C(=O)O)C(C)C; dNMeS = CN[C@H](CO)C(=O)O; dNMeA = CN[C@H](C)C(=O)O; Sar = CNCC(=O)O; tBu = CC(C)(C)*", "data": [{"target": "HCV replicon", "format": "cell-based, hepatitis C virus", "settings": "HCV replicon cells, luciferase activity two days after addition of compound, 50% of control (DMSO only)", "method": "It is thought that the replication mechanism of the subgenomic HCV RNA in these cell lines is extremely similar to the replication of full length HCV RNA genome in hepatic cells infected with HCV.\nThe inhibitory activity of the test compounds against the replication of HCV replicon was evaluated by quantified the activity of luciferase, a reporter gene product encoded in the replicon system reported by Yokota et al., EMBO 4: 602-608 (2003). The enzyme assay was carried out according to the technical manual of the Steady-Glo® luciferase assay system (Promega). The replicon assay was carried out with the modified method reported by Lohmann et al., Science 285: 110 (1999). The details are described in the following.\n6×10^3 HCV replicon cells in D-MEM medium containing 5% fetal bovine serum were seeded in each well of a 96-well microtiter plate (Corning Inc.). After the cells were incubated at 37° C. for 16 hours in 5% CO2, the test compound was added.\nAfter cultivation for two more days, the culture medium was removed and 25 μl of Glo Lysis buffer was added to each well and incubated for 5 minutes. Allowing lysis to occur, 25 μl of Steady-Glo® assay reagent was added to each well. After incubation for 5 minutes, the luminescence was measured with a luminometer, Mithras LB940 (BERTHOLD TECHNOLOGIES GmbH & Co.KG) following the manufacturer's instructions.\nThe luciferase activities in replicon cells treated at each concentrations of the compound were employed for the calculation of EC50 value of the each compound, which gave the compound concentration indicating 50% enzyme activity level to the control (no drug group, containing only DMSO).", "units": {"HCV replicon replication inhibitory activity: EC50": "µg/mL"}, "values": [{"compound": "C/C=C/C[C@@H](C)[C@@H](O)[C@H]1C(=O)N[C@@H]([C@@H](C)O)C(=O)N(C)[C@H](COC)C(=O)N(C)[C@@H]([C@@H](C)OC)C(=O)N[C@@H](CC(C)C)C(=O)N(C)[C@@H](CC(C)C)C(=O)N[C@@H](C)C(=O)N[C@H](C)C(=O)N(C)[C@@H](CC(C)C)C(=O)N[C@@H](CC(C)C)C(=O)N(C)[C@@H](C(C)C)C(=O)N1C", "note": "[Example 9] (cyclo(A[dA][NMeL]L[NMeV][MeBmt]T[dNMeS](Me)[NMeT](Me)L[NMeL]))", "HCV replicon replication inhibitory activity: EC50": "<0.5"}, {"compound": "C/C=C/C[C@@H](C)[C@@H](O)[C@H]1C(=O)N[C@@H]([C@@H](C)O)C(=O)N(C)[C@H](C)C(=O)N(C)[C@@H](C(C)O)C(=O)N[C@@H](CC(C)C)C(=O)N(C)[C@@H](CC(C)C)C(=O)N[C@@H](C)C(=O)N[C@H](C)C(=O)N(C)[C@@H](CC(C)C)C(=O)N[C@@H](CC(C)C)C(=O)N(C)[C@@H](C(C)C)C(=O)N1C", "note": "(stereo partly drawn) [Example 12, (3R,6S,9S,12S,15S,18S,21R,24S,27S,30S,33S)-6-[(1R)-1-hydroxyethyl]-33-(1-hydroxyethyl)-9-[(1R,2R,4E)-1-hydroxy-2-methyl-4-hexen-1-yl]-15,18,27,30-tetraisobutyl-12-isopropyl-1,3,4,10,13,19,21,24,28-nonamethyl-1,4,7,10,13,16,19,22,25,28,31-undecaazacyclotritriacontane-2,5,8,11,14,17,20,23,26,29,32-undecone] (cyclo(A[dA][NMeL]L[NMeV][MeBmt]T[dNMeA][NMeThr(3ξ)]L[NMeL]))", "HCV replicon replication inhibitory activity: EC50": "<0.5"}, {"compound": "C/C=C/C[C@@H](C)[C@@H](O)[C@H]1C(=O)N[C@@H]([C@@H](C)O)C(=O)N(C)[C@H](C)C(=O)N(C)[C@@H](C(C)CC)C(=O)N[C@@H](CC(C)C)C(=O)N(C)[C@@H](CC(C)C)C(=O)N[C@@H](C)C(=O)N[C@H](C)C(=O)N(C)[C@@H](CC(C)C)C(=O)N[C@@H](CC(C)C)C(=O)N(C)[C@@H](C(C)C)C(=O)N1C", "note": "(stereo partly drawn) [Example 14, (3R,6S,9S,12S,15S,18S,21R,24S,27S,30S,33S)-33-sec-butyl-6-[(1R)-1-hydroxyethyl]-9-[(1R,2R,4E)-1-hydroxy-2-methyl-4-hexen-1-yl]-15,18,27,30-tetraisobutyl-12-isopropyl-1,3,4,10,13,19,21,24,28-nonamethyl-1,4,7,10,13,16,19,22,25,28,31-undecaazacyclotritriacontane-2,5,8,11,14,17,20,23,26,29,32-undecone] (cyclo(A[dA][NMeL]L[NMeV][MeBmt]T[dNMeA][NMeIle(3ξ)]L[NMeL]))", "HCV replicon replication inhibitory activity: EC50": "<0.5"}, {"compound": "C/C=C/C[C@@H](C)[C@@H](O)[C@H]1C(=O)N[C@@H]([C@@H](C)O)C(=O)N(C)[C@H](C)C(=O)N(C)[C@@H](c2ccccc2)C(=O)N[C@@H](CC(C)C)C(=O)N(C)[C@@H](CC(C)C)C(=O)N[C@@H](C)C(=O)N[C@H](C)C(=O)N(C)[C@@H](CC(C)C)C(=O)N[C@@H](CC(C)C)C(=O)N(C)[C@@H](C(C)C)C(=O)N1C", "note": "[Example 15] (cyclo(A[dA][NMeL]L[NMeV][MeBmt]T[dNMeA][NMePhg]L[NMeL]))", "HCV replicon replication inhibitory activity: EC50": "<0.5"}, {"compound": "C/C=C/C[C@@H](C)[C@@H](O)[C@H]1C(=O)N[C@@H]([C@@H](C)O)C(=O)N(C)[C@H](CC)C(=O)N(C)[C@@H]([C@@H](C)OC)C(=O)N[C@@H](CC(C)C)C(=O)N(C)[C@@H](CC(C)C)C(=O)N[C@@H](C)C(=O)N[C@H](C)C(=O)N(C)[C@@H](CC(C)C)C(=O)N[C@@H](CC(C)C)C(=O)N(C)[C@@H](C(C)C)C(=O)N1C", "note": "[Example 16] (cyclo(A[dA][NMeL]L[NMeV][MeBmt]T[dNMeAbu][NMeT](Me)L[NMeL]))", "HCV replicon replication inhibitory activity: EC50": "<0.5"}, {"compound": "C/C=C/C[C@@H](C)[C@@H](O)[C@H]1C(=O)N[C@@H]([C@@H](C)O)C(=O)N(C)[C@H](C)C(=O)N(C)[C@@H](C(C)OC(C)(C)C)C(=O)N[C@@H](CC(C)C)C(=O)N(C)[C@@H](CC(C)C)C(=O)N[C@@H](C)C(=O)N[C@H](C)C(=O)N(C)[C@@H](CC(C)C)C(=O)N[C@@H](CC(C)C)C(=O)N(C)[C@@H](C(C)C)C(=O)N1C", "note": "(stereo partly drawn) [Example 25, (3R,6S,9S,12S,15S,18S,21R,24S,27S,30S,33S)-33-(1-tert-butoxyethyl)-6-[(1R)-1-hydroxyethyl]-9-[(1R,2R,4E)-1-hydroxy-2-methyl-4-hexen-1-yl]-15,18,27,30-tetraisobutyl-12-isopropyl-1,3,4,10,13,19,21,24,28-nonamethyl-1,4,7,10,13,16,19,22,25,28,31-undecaazacyclotritriacontane-2,5,8,11,14,17,20,23,26,29,32-undecone] (cyclo(A[dA][NMeL]L[NMeV][MeBmt]T[dNMeA][NMeThr(3ξ)](tBu)L[NMeL]))", "HCV replicon replication inhibitory activity: EC50": "<0.5"}, {"compound": "C/C=C/C[C@@H](C)[C@@H](O)[C@H]1C(=O)N[C@@H]([C@@H](C)O)C(=O)N(C)[C@H](C)C(=O)N(C)[C@@H]([C@@H](C)OC)C(=O)N[C@@H](CC(C)C)C(=O)N(C)[C@@H](CC(C)C)C(=O)N[C@@H](C)C(=O)N[C@H](C)C(=O)N(C)[C@@H](CC(C)C)C(=O)N[C@@H](CC(C)C)C(=O)N(C)[C@@H](C(C)C)C(=O)N1C", "note": "[Example 32] (cyclo(A[dA][NMeL]L[NMeV][MeBmt]T[dNMeA][NMeT](Me)L[NMeL]))", "HCV replicon replication inhibitory activity: EC50": "<0.5"}, {"compound": "C/C=C/C[C@@H](C)[C@@H](O)[C@H]1C(=O)N[C@@H]([C@@H](C)O)C(=O)N(C)CC(=O)N(C)[C@@H](C(C)OC(C)(C)C)C(=O)N[C@@H](CC(C)C)C(=O)N(C)[C@@H](CC(C)C)C(=O)N[C@@H](C)C(=O)N[C@H](C)C(=O)N(C)[C@@H](CC(C)C)C(=O)N[C@@H](CC(C)C)C(=O)N(C)[C@@H](C(C)C)C(=O)N1C", "note": "(stereo partly drawn) [Example 52, (3S,6S,9S,12R,15S,18S,21S,24S,30S,33S)-24-(1-tert-butoxyethyl)-30-[(1R)-1-hydroxyethyl]-33-[(1R,2R,4E)-1-hydroxy-2-methyl-4-hexen-1-yl]-6,9,18,21-tetraisobutyl-3-isopropyl-1,4,10,12,15,19,25,28-octamethyl-1,4,7,10,13,16,19,22,25,28,31-undecaazacyclotritriacontane-2,5,8,11,14,17,20,23,26,29,32-undecone] (cyclo(A[dA][NMeL]L[NMeV][MeBmt]T[Sar][NMeThr(3ξ)](tBu)L[NMeL]))", "HCV replicon replication inhibitory activity: EC50": "<0.5"}]}, {"system": "Human Immunodeficiency Virus Type 1 (HIV-1)", "settings": "M. Thali et al., Nature 372, 363-365 (1994); cited from earlier work", "values": [{"compound": "Cyclosporin A", "anti-HIV activity": "anti-HIV activity"}]}, {"system": "HCV", "settings": "K. Inoue et al., 6th International Symposium on Hepatitis C and Related Virus (2000); cited from earlier work", "values": [{"compound": "Cyclosporin A", "anti-HCV activity": "anti-HCV activity"}]}]}
